According to patent US11780821B2, “Inhibitors of fibroblast activation protein” (Praxis Biotech LLC, priority 2017, dated 2023):
Like-named read-outs stand apart in the source and are kept apart here.

Key:
Format in all cases: biochemical
[1] = target: T1, recombinant human PREP (rhPREP) (Homo sapiens, UniProt P48147); test: PREP enzymatic activity assay; conditions: Z-Gly-Pro-AMC substrate
T1 sequence (P48147 1-710): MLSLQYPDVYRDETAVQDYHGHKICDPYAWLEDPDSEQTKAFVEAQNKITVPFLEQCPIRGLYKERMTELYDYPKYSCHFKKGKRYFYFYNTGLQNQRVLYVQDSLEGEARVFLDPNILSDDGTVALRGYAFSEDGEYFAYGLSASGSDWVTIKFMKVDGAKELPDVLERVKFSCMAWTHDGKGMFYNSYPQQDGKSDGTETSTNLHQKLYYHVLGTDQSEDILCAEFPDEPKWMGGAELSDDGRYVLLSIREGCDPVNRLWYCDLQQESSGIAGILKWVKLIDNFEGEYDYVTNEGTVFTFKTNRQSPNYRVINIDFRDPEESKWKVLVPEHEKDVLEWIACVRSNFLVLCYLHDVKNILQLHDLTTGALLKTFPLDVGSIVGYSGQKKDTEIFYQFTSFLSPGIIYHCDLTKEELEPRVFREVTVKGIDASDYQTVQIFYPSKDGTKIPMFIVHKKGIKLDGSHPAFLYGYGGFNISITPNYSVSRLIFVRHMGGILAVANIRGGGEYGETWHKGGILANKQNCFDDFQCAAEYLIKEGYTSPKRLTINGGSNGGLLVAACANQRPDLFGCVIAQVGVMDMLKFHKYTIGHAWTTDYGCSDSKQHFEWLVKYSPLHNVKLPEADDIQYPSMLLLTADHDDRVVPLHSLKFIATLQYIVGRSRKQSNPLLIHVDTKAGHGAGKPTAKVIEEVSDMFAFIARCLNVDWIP
Protocol: (§1) 7-Amino-4-Methylcoumarin (AMC) release was detected by measuring fluorescence at Ex/Em 380/460 nm using a Multifunction Microplate Reader (Synergy 4, Biotek). All measurements were carried out in triplicate.

[2] = target: T2, recombinant human FAPα (rhFAPα) (Homo sapiens, UniProt Q12884); test: FAPα enzymatic exopeptidase (dipeptidase) activity assay; conditions: for inhibition at 1 µM: read-out: rhFAPα (% exo inh @ 1 μM); for IC50: exopeptidase, read-out: rhFAPα (exo IC50)
T2 construct: purchased R&S system (so in the source)
T2 sequence (Q12884 1-760): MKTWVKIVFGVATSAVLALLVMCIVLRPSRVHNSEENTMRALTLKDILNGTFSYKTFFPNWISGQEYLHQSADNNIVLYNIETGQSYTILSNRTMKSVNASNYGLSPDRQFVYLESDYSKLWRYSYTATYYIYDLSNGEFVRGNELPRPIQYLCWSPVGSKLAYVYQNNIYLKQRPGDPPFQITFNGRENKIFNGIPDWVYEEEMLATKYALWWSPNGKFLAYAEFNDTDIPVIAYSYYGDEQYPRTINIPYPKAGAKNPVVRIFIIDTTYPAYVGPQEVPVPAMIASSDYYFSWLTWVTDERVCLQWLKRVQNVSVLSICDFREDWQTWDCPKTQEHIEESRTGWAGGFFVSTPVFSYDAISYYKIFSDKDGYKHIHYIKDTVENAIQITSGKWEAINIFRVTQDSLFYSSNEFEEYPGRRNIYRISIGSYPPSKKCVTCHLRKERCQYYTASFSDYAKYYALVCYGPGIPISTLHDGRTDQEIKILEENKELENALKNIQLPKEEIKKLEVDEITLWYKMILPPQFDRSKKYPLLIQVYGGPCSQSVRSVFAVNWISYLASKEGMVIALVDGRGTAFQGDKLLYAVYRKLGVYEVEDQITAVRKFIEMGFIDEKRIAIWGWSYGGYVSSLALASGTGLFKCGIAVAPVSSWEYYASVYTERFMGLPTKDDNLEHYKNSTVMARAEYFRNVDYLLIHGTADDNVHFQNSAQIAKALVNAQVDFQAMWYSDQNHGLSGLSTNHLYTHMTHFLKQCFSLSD

[3] = target: T3, recombinant human DPP9 (rhDPP9) (Homo sapiens, UniProt Q86TI2); test: DPP9 enzymatic activity assay; conditions: H-Gly-Pro-AMC substrate
T3 construct: purchased R&S system (so in the source)
Protocol: as §1

[4] = target: T4, recombinant human DPPIV (rhDPPIV) (Homo sapiens, UniProt P27487); test: DPPIV enzymatic activity assay; conditions: H-Gly-Pro-pNA substrate
T4 construct: purchased R&S system (so in the source)

[5] = 1 μM test compound, Z-Gly-Pro-AMC substrate

T3 sequence (Q86TI2 whole entry): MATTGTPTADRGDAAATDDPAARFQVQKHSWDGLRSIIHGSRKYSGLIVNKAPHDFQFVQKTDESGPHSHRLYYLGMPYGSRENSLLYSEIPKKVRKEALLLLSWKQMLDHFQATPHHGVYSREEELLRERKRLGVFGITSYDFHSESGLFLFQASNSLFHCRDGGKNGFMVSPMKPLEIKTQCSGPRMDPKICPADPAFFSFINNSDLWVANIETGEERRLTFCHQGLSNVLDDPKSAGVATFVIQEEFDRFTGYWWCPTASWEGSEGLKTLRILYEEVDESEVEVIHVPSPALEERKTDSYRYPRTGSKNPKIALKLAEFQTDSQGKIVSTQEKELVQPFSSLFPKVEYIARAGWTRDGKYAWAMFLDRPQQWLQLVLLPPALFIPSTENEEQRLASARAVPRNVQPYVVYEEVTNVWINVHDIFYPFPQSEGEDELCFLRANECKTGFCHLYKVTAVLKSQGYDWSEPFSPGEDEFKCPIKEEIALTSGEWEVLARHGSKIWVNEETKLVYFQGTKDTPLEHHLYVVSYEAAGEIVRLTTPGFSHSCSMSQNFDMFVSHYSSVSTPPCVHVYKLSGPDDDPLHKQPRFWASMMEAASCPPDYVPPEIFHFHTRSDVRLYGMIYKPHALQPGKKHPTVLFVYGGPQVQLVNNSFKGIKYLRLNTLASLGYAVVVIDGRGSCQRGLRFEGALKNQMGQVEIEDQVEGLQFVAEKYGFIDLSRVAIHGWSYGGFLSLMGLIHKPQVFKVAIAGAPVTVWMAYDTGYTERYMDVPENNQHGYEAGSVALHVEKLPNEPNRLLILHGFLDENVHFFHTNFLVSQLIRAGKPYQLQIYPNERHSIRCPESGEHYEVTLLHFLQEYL
T4 sequence (P27487 whole entry): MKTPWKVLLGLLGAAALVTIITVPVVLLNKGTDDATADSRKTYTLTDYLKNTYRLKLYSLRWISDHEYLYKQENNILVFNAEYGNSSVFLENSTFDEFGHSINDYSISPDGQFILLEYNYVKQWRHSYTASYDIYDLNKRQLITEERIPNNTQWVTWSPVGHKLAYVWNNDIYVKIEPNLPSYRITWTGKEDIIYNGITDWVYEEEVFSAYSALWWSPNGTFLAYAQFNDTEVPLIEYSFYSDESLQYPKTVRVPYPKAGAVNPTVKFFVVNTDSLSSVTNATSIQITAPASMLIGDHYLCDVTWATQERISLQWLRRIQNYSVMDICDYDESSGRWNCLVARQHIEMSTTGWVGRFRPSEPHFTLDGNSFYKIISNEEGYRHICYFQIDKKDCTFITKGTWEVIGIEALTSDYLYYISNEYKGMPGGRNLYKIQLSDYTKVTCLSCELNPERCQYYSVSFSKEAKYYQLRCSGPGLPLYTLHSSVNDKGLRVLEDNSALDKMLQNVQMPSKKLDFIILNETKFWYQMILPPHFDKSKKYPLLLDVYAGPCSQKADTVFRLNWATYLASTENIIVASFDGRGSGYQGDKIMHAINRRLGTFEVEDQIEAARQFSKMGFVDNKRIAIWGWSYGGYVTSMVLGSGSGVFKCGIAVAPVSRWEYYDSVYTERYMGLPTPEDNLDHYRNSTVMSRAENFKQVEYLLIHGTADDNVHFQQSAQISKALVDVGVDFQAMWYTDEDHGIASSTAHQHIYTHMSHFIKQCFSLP

IC50 [1]	inhibition at 1 µM [2, 5]	IC50 ([2]; Table 2, Z-Gly-Pro-AMC)	IC50 ([2]; Table 3)	IC50 [3]	IC50 [4]	Structure (SMILES)	inhibition at 1 µM [2]
–	> 50%	< 1 µM	< 1 µM	1 to 10 µM	–	N#C[C@@H]1CC(F)(F)CN1C(=O)CNC(=O)c1ccncc1CCc1ccccc1 [Compound 125, (S)—N-(2-(2-cyano-4,4-difluoropyrrolidin-1-yl)-2-oxoethyl)-3-phenethylisonicotinamide]	–
> 10 µM	> 50%	< 1 µM	< 1 µM	> 10 µM	> 10 µM	N#C[C@@H]1CC(F)(F)CN1C(=O)CNC(=O)c1ccncc1NC1CCNCC1 [Compound 118, (S)—N-(2-(2-cyano-4,4-difluoropyrrolidin-1-yl)-2-oxoethyl)-3-(piperidin-4-ylamino)isonicotinamide]	–
> 10 µM	> 50%	< 1 µM	< 1 µM	> 10 µM	1 to 10 µM	N#C[C@@H]1CC(F)(F)CN1C(=O)CNC(=O)c1ccncc1N1CCC(N)CC1 [Compound 120, (S)-3-(4-aminopiperidin-1-yl)-N-(2-(2-cyano-4,4-difluoropyrrolidin-1-yl)-2-oxoethyl)isonicotinamide 2,2,2-trifluoroacetate]	–
–	25 to 50%	–	–	–	–	N#C[C@@H]1CC(F)(F)CN1C(=O)CNC(=O)c1ccc2[nH]ncc2c1 [Compound 83]	–
> 10 µM	> 50%	< 1 µM	< 1 µM	> 10 µM	> 10 µM	N#C[C@@H]1CC(F)(F)CN1C(=O)CNC(=O)c1ccncc1-c1ccc2c(c1)CCN2 [Compound 104, (S)—N-(2-(2-cyano-4,4-difluoropyrrolidin-1-yl)-2-oxoethyl)-3-(indolin-5-yl)isonicotinamide]	–
–	25 to 50%	–	–	–	–	N#C[C@@H]1CC(F)(F)CN1C(=O)CNC(=O)c1cc2ccncc2o1 [Compound 84]	–
> 10 µM	> 50%	< 1 µM	–	> 10 µM	> 10 µM	N#C[C@@H]1CC(F)(F)CN1C(=O)CNC(=O)c1ccncc1Oc1ccc(F)cc1 [compound 35]	–
–	> 50%	< 1 µM	< 1 µM	1 to 10 µM	–	N#C[C@@H]1CC(F)(F)CN1C(=O)CNC(=O)c1ccncc1/C=C/c1ccccc1 [Compound 124, (S,E)-N-(2-(2-cyano-4,4-difluoropyrrolidin-1-yl)-2-oxoethyl)-3-styrylisonicotinamide]	–
> 10 µM	> 50%	< 1 µM	< 1 µM	> 10 µM	> 10 µM	CC(C)(C)c1cccc(-c2cnccc2C(=O)NCC(=O)N2CC(F)(F)C[C@H]2C#N)c1 [Compound 112, (S)-3-(3-(tert-butyl)phenyl)-N-(2-(2-cyano-4,4-difluoropyrrolidin-1-yl)-2-oxoethyl)isonicotinamide]	–
1 to 10 µM	> 50%	< 1 µM	< 1 µM	–	> 10 µM	N#C[C@@H]1CC(F)(F)CN1C(=O)CNC(=O)c1coc(=O)c2ccccc12 [Compound 22, (S)—N-(2-(2-cyano-4,4-difluoropyrrolidin-1-yl)-2-oxoethyl)-1-oxo-1H-isochromene-4-carboxamide]	–
–	> 50%	< 1 µM	< 1 µM	–	> 10 µM	COc1cnccc1C(=O)NCC(=O)N1CC(F)(F)C[C@H]1C#N [Compound 36]	–
–	25 to 50%	–	–	–	–	COc1ccc(C(=O)NCC(=O)N2CC(F)(F)C[C@H]2C#N)c(-c2ccccc2)n1 [Compound 86, (S)—N-(2-(2-cyano-4,4-difluoropyrrolidin-1-yl)-2-oxoethyl)-6-methoxy-2-phenylnicotinamide]	–
–	25 to 50%	–	–	–	–	N#Cc1ccc(C(=O)NCC(=O)N2CC(F)(F)C[C@H]2C#N)cc1 [Compound 17, (S)-4-cyano-N-(2-(2-cyano-4,4-difluoropyrrolidin-1-yl)-2-oxoethyl)benzamide]	–
–	< 25%	–	–	–	–	N#C[C@@H]1CC(F)(F)CN1C(=O)CNC(=O)c1ccc(=O)[nH]c1-c1ccccc1 [compound 30]	–

More lines, now with the values behind:

Structure (SMILES)	IC50 [1]	inhibition at 1 µM [2, 5]	IC50 ([2]; Table 2, Z-Gly-Pro-AMC)	IC50 ([2]; Table 3)	IC50 [3]	IC50 [4]	inhibition at 1 µM [2]
N#C[C@@H]1CC(F)(F)CN1C(=O)CNC(=O)c1ccc(=O)n2c1CCCCC2 [Compound 21, (S)—N-(2-(2-cyano-4,4-difluoropyrrolidin-1-yl)-2-oxoethyl)-4-oxo-4,6,7,8,9,10-hexahydropyrido[1,2-a]azepine-1-carboxamide]	1 to 10 µM	> 50%	< 1 µM	< 1 µM	> 10 µM	> 10 µM	–
N#C[C@@H]1CC(F)(F)CN1C(=O)C1(NC(=O)c2c[nH]c(=O)c3ccccc23)CC1 [Compound 23, (S)—N-(1-(2-cyano-4,4-difluoropyrrolidine-1-carbonyl)cyclopropyl)-1-oxo-1,2-dihydroisoquinoline-4-carboxamide]	–	< 25%	–	–	–	–	–
N#C[C@@H]1CC(F)(F)CN1C(=O)CNC(=O)C1=NNC(=O)C2C=CC=CC12 (stereo partly shown) [Compound 80]	–	> 50%	< 1 µM	< 1 µM	–	> 10 µM	–
N#C[C@@H]1CC(F)(F)CN1C(=O)CNC(=O)c1ccc2nccc(-c3ccccc3)c2c1 [Compound 19, (S)—N-(2-(2-cyano-4,4-difluoropyrrolidin-1-yl)-2-oxoethyl)-4-phenylquinoline-6-carboxamide]	> 10 µM	> 50%	< 1 µM	< 1 µM	–	> 10 µM	–
N#C[C@H]1CC(F)(F)CN1C(=O)CNC(=O)c1ccncc1C1CC1 [compound 37]	–	–	–	–	–	–	> 50%
CCN1C(=O)CC[C@@H](C(=O)NCC(=O)N2CC(F)(F)C[C@H]2C#N)[C@@H]1c1ccccc1 [Compound 20, (2R,3R)—N-(2-((S)-2-cyano-4,4-difluoropyrrolidin-1-yl)-2-oxoethyl)-1-ethyl-6-oxo-2-phenylpiperidine-3-carboxamide]	–	25 to 50%	–	–	–	–	–
CC(NC(=O)c1c[nH]c(=O)c2ccccc12)C(=O)N1CC(F)(F)C[C@H]1C#N (stereo partly drawn) [Compound 25, N-(1-((S)-2-cyano-4,4-difluoropyrrolidin-1-yl)-1-oxopropan-2-yl)-1-oxo-1,2-dihydroisoquinoline-4-carboxamide]	–	–	–	–	–	–	< 25%
Cn1nc(C(=O)NCC(=O)N2CC(F)(F)C[C@H]2C#N)c2ccccc2c1=O [Compound 81]	–	< 25%	–	–	–	–	–
N#C[C@@H]1CC(F)(F)CN1C(=O)CNC(=O)c1ccn2nccc2c1 [Compound 85]	–	> 50%	–	–	–	–	–
N#Cc1ccc(C(=O)NCC(=O)N2CC(F)(F)C[C@H]2C#N)cc1F [Compound 15, (S)-4-cyano-N-(2-(2-cyano-4,4-difluoropyrrolidin-1-yl)-2-oxoethyl)-3-fluorobenzamide]	–	25 to 50%	–	–	–	–	–
N#C[C@@H]1CC(F)(F)CN1C(=O)CCCNC(=O)c1c[nH]c(=O)c2ccccc12 [Compound 82, (S)—N-(4-(2-cyano-4,4-difluoropyrrolidin-1-yl)-4-oxobutyl)-1-oxo-1,2-dihydroisoquinoline-4-carboxamide]	–	< 25%	–	–	–	–	–
N#Cc1ccc(C(=O)NCC(=O)N2CC(F)(F)C[C@H]2C#N)c(C(F)(F)F)c1 [Compound 18, (S)-4-cyano-N-(2-(2-cyano-4,4-difluoropyrrolidin-1-yl)-2-oxoethyl)-2-(trifluoromethyl)benzamide]	–	25 to 50%	–	–	–	–	–
N#C[C@@H]1CC(F)(F)CN1C(=O)C1CC(NC(=O)c2c[nH]c(=O)c3ccccc23)C1 (stereo partly shown) [Compound 101]	–	< 25%	–	–	–	–	–
